Ends that are not written are not given here.
How the values were obtained:
Format in all cases: cell-based
LC50 on red blood cells [1] = details: Human red blood cells
Experimental: The human red blood cells were purified from the whole blood of healthy donors (blood bank, IMSS, Cuernavaca, Mexico).
(§1) The peptides are incubated at 37° C., 5% CO2 in the presence of 500,000 red blood cells in RPMI medium at varied concentrations and at varied times. Peptide-free cells are used as the negative control and cells incubated for 5 min at 50° C. or in the presence of DMSO (30%) are used as the positive control. The LC50 is then calculated as being the concentration of DA2N and DA2NEQ peptides inducing the death of 50% of the red blood cells.

LC50 on red blood cells [2] = details: C57BL6; Mouse red blood cells
Experimental: The mouse red blood cells are obtained from C57BL6 mouse bone marrow.
as §1

Escherichia coli ML35p = experiment: MIC/MBC, growth inhibition in liquid medium (Example 2); details: Table 2
From the text: (§2) Escherichia coli (ATCC 8739, ATCC ML35p and P7 BLSE), Pseudomonas aeruginosa (ATCC 9027 and ATCC 27853), Klebsiella oxytoca (CIP 7932), Klebsiella pneumoniae (CIP 52.211), Salmonella enterica (CIP 8297), Yersinia ruckeri (ATCC 29473), Vibrio parahemolyticus (IFREMER 01 01/252), Staphylococcus aureus (ATCC 6538, ST 1065 and MRSA), Staphylococcus epidermidis (BM 3302), Listeria monocytogenes (SOR 100), Enterococcus faecalis (CIP A186, CIP 103015)), Kocuria rhizophila (ATCC 9341), Lactococcus garviae (ATCC 43921), Bacillus subtilis (CIP 52.65).
(§3) For each strain, a 5 ml pre-culture in LB medium is prepared by inoculating a colony of the bacterial strain of interest. The pre-culture is incubated at 37° C. under stirring overnight. The culture is subcultured (30 µL) in 5 mL. The culture concentration is evaluated by measuring the optical density at 620 nm. The concentration is adjusted by dilution so as to obtain a suspension with an OD of 0.05 at 620 nm.
(§4) The MIC is determined using a growth inhibition test in liquid medium. The MIC is defined as being the lowest peptide concentration capable of inhibiting the bacterial strain tested, after incubation for 18 h at 37° C. The test was carried out in a sterile microtitration plate containing 96 wells. A series of increasing concentrations of each peptide (0.2 to 100 µM) was prepared beforehand in sterile MilliQ water. In each well, 10 µL of peptide was incubated with 90 µL of bacterial suspension (10^7 cfu/mL) in yeast extract-free LB medium. The microplate was incubated at 37° C. for 18 h. The bacterial growth was evaluated by measuring the OD at 620 nm using a plate reader.
(§5) The negative growth inhibition control was obtained by replacing the solution containing the peptide by sterile MilliQ water. The positive control suitable for completely inhibiting the growth of the bacterial strains was obtained by replacing the solution containing the peptide by 10 µL of formaldehyde.
(§6) The results are interpreted by calculating the percentage of bacterial growth in each well according to the formula:
(§7) %Growth = (OD well - OD of T0)/(OD of T100-OD of T0)*100 where
(§8) • OD of T100 = OD of growth control (bacterial suspension free from sample under test, 100% growth), • OD of T0 = OD of sterility control (culture medium + bacterium + 10 µL formaldehyde, 0% growth) and • OD well = OD of well for which it is sought to calculate the growth percentage (bacterial suspension + peptide under test).
(§9) The MBC is defined as being the minimum peptide concentration leaving no surviving bacteria of the inoculum after incubation at 37° C. for 24 hours. This test consists of smearing the contents of the well wherein the peptide has inhibited bacterial growth on a Petri dish (LB agar), followed by incubation for 24 h at 37° C.

[3] = tested on: Staphylococcus aureus ATCC 6538; experiment: as above; details: Table 2
From the text: as §2, §3, §4, §5, §6, §7, §8, §9

[4] = tested on: Bacillus subtilis CIP 52.65; experiment: as above; details: Table 2
From the text: as §2, §3, §4, §5, §6, §7, §8, §9

[5] = tested on: Staphylococcus epidermidis BM 3302; experiment: as above; details: Table 2
From the text: as §2, §3, §4, §5, §6, §7, §8, §9

[6] = tested on: Klebsiella oxytoca CIP 7932; experiment: as above; details: Table 2
From the text: as §2, §3, §4, §5, §6, §7, §8, §9

[7] = tested on: Staphylococcus aureus ST 1065; experiment: as above; details: Table 2
From the text: as §2, §3, §4, §5, §6, §7, §8, §9

[8] = tested on: Escherichia coli ATCC 8739; experiment: as above; details: Table 2
From the text: as §2, §3, §4, §5, §6, §7, §8, §9

Mouse red blood cells = experiment: Haemolytic activity; details: results not shown
Experimental: (§10) Mouse or donor blood is washed three times in 10 volumes of PBS at 4° C. by centrifugation at 800 g for 10 minutes. The blood sediment is finally diluted to 4% (v/v) in PBS buffer. The test was carried out as follows: either 10 µM, or 50 µM of peptide was added to 100 µL of red blood cell suspension.
(§11) After 1h of incubation at 37° C. followed by centrifugation (800 g, 15 min), the absorbance of the supernatant was measured at 550 nm.
(§12) The negative control for this test (0% haemolysis) contains 5 µL of PBS buffer instead of the solution containing the peptide and the positive control (100% haemolysis) contains 5 µL of 1% Triton X100 instead of the solution containing the peptide.
The haemolytic activity of the antimicrobial peptides was measured as per the protocol described in part 3.1 of Example 3.

[9] = tested on: non-immune cells (epithelial cells); experiment: Survival of non-immune cells; details: doses of the micromolar order; mouse and human epithelial cells
Experimental: The following non-immune cells were extracted after sacrificing C57BL6 mice or in a surgical context: epithelial cells, adipocytes, hepatocytes.
The peptides are incubated at 37° C., 5% CO2 in the presence of 500,000 immune and non-immune cells in RPMI medium at varied concentrations and at varied times. Peptide-free cells are used as the negative control and cells incubated for 5 min at 50° C. or in the presence of DMSO (30%) are used as the positive control. After incubation, the cells are washed then labelled with propidium iodide so as to measure the cell viability. The cell viability is analysed by counting or with flow cytometry in the presence of antibodies coupled with fluorochromes corresponding to characteristic markers of each cell population. The LC50 is then calculated as being the concentration of DA2N and DA2NEQ peptides inducing the death of 50% of each one of the immune cell populations.
Cytometry data processing is carried out with FlowJo software.

Human red blood cells = experiment: Haemolytic activity; details: 10 µM and 50 µM, 1h at 37° C.
Experimental: as §10, §11, §12

| Substance | CC50 (LC50 on red blood cells [1]) | CC50 (LC50 on red blood cells [2]) | MBC (Escherichia coli ML35p) | MIC (Escherichia coli ML35p) | MBC [3] | MIC [3] | MBC [4] | MIC [4] | MBC [5] | MIC [5] | MBC [6] | MIC [6] | MBC [7] | MIC [7] | MBC [8] | MIC [8] | haemolysis of mouse red blood cells (Mouse red blood cells) | death of non-immune cells [9] | haemolysis of human red blood cells (Human red blood cells) |
| --- | --- | --- | --- | --- | --- | --- | --- | --- | --- | --- | --- | --- | --- | --- | --- | --- | --- | --- | --- |
| ALWKTLLKKVGKVAGKAVLNAVTNMANQN-OH [DA2N] | 750 µM | 750 µM | 6.25 µM | 3.12 µM | 6.25 µM | 6.25 µM | 6.25 µM | 6.25 µM | 12.5 µM | 1 µM | 6.25 µM | 3.12 µM | 12.5 µM | 12.5 µM | 3.12 µM | 3.12 µM | do not induce the haemolysis | induce the death of immune cells but not of non-immune cells | do not induce the haemolysis |
| ALWKTLLKKVGKVAGKAVLNAVTNMANQNEQ [DA2NEQ, ALWKTLLKKVGKVAGKAVLNAVTNMANQNEQOH] | 750 µM | 750 µM | 6.25 µM | 6.25 µM | 12.5 µM | 12.5 µM | 6.25 µM | 6.25 µM | >100 µM | >100 µM | >100 µM | 12.5 µM | >100 µM | >100 µM | 6.25 µM | 3.12 µM | do not induce the haemolysis | induce the death of immune cells but not of non-immune cells | do not induce the haemolysis |

— US20230192772A1, “ANTIMICROBIAL PEPTIDES AND USES THEREOF” (SORBONNE UNIVERSITE, priority 2016, published 2023)
